# “And” between values parts separate entries of the source, which are not always exact repeats. Equal values may be shown once. The source made the active and inactive calls. No rule for the calls is given here.
# System: not listed separately
# Assay: Confirmatory dose response, V. cholerae WN1103 δluxq inducers of light production, absence of autoinducers (AID 686930)
# Conditions: V. cholerae WN1103 ΔluxQ, lux luminescence, 6 h; at 35 µM (top of the series)
row,SMILES,light induction (activation)
1,O=C(CC1CCCCC1)Nc1nnc(-c2ccc3c(c2)CCCC3)o1,0.068% (inactive)

# Same assay, conditions: V. cholerae WN1103 ΔluxQ, lux luminescence, 6 h; at 80 µM (top of the series)
row,SMILES,light induction (activation)
1,O=C(CSc1nc2c(c(=O)[nH]1)CCCC2)NC1CCCCC1,1.52% (inactive)
2,COc1cccc(-n2cnc(=O)c3ccccc32)c1,12% (inactive)
3,O=c1[nH]cnc2ccccc12,0.044% (inactive)
4,NC(=O)c1ccccc1Nc1cccc(Cl)c1,0.32% (inactive)
5,Cn1cnc(=O)c2ccccc21,0.063% (inactive)
6,O=C1C(=O)N(Cc2ccccc2Cl)c2ccccc21,0.599% (inactive)
7,CCC(C)(C)C(=O)Nc1nnc(-c2ccc3c(c2)OCCO3)o1,-0.001% (inactive)
8,NC(=O)c1ccccc1Nc1ccccc1,1.21% (inactive)
9,O=c1ncn(-c2cccc(Cl)c2)c2cccc(Cl)c12,0.081% (inactive)
10,O=C(O)c1ccccc1Nc1cccc(Cl)c1,0.041% (inactive)
11,O=c1ncn(-c2ccccc2Cl)c2ccccc12,5% (inactive)
12,CCc1nc(=O)c2ccccc2n1-c1cccc(Cl)c1,0.68% (inactive)
13,O=C(Nc1nnc(-c2ccc(Cl)cc2)o1)C1CCCCC1,0.835% (inactive)
14,Cc1ccc2c(=O)ncn(-c3cccc(Cl)c3)c2c1,0.092% (inactive)
15,O=c1ncn(-c2ccc(Cl)c(Cl)c2)c2ccccc12,0.121% (inactive)
16,O=C(Nc1nnc(-c2cccc(Cl)c2)o1)C1CCCCC1,0.053% (inactive)

row,SMILES,light induction (activation)
1,O=C(Nc1nnc(-c2ccc3c(c2)CCCC3)o1)C1CCC1,0.009% (inactive)
2,O=C(Nc1nnc(-c2ccc3c(c2)OCCO3)o1)C1CCCC1,0.121% (inactive)
3,O=c1nc(-c2ccccc2)n(-c2cccc(Cl)c2)c2ccccc12,-0.003% (inactive)
4,O=C(CSc1nc2ccccc2c(=O)[nH]1)NC1CCCCC1,0.011% (inactive)
5,CCOC(=O)c1ccccc1Nc1cccc(Cl)c1,0.033% (inactive)
6,COc1ccc2c(=O)ncn(-c3cccc(Cl)c3)c2c1,0.054% (inactive)
7,O=c1ncn(-c2cccc(Cl)c2)c2cc(Cl)ccc12,0.848% (inactive)
8,Cc1ccc(-n2cnc(=O)c3ccccc32)cc1Cl,0.708% (inactive)
9,O=C1C(=O)N(Cc2cccc(Cl)c2)c2ccccc21,0.237% (inactive)
10,COc1ccc(-n2cnc(=O)c3ccccc32)cc1Cl,1.24% (inactive)
11,O=c1nc(Cc2ccccc2)n(-c2cccc(Cl)c2)c2ccccc12,17.7% (inactive)
12,O=C(CC1CCCCC1)Nc1nnc(-c2cccnc2)o1,-0.002% (inactive)
13,O=c1ncn(Cc2ccc(Cl)cc2)c2ccccc12,3.21% (inactive)
14,O=c1ncn(-c2ccc(Cl)cc2)c2ccccc12,0.086% (inactive)
15,Cc1ccc2cc3c(NC(=O)c4ccoc4)nn(C)c3nc2c1,6.06% (inactive)
16,COC(=O)c1ccccc1Nc1cccc(Cl)c1,0.819% (inactive)

# Same assay, conditions: V. cholerae WN1103 ΔluxQ, lux luminescence, 6 h; at 100 µM (top of the series)
row,SMILES,light induction (activation)
1,Cc1ccc2cc3c(NC(=O)Cc4ccco4)nn(C)c3nc2c1,0.668% (inactive)
2,O=C(Nc1nnc(C2CCCC2)o1)C1CCCCC1,0.003% (inactive)
3,CC(C)(C)OC(=O)N1CCC(C(=O)Nc2nnc(-c3ccc4c(c3)OCCO4)o2)CC1,0.028% (inactive)
4,CCn1nnnc1/N=C/c1ccc(N2CCCCC2)cc1,1.21% (inactive)
5,O=C(Cc1ccc(-c2ccccc2)cc1)NC1CNC1,0.006% (inactive)
6,O=C(Nc1nnc(-c2cccnc2)o1)C1CCC1,-0.007% (inactive)
7,c1ccc(CNc2nnc(-c3ccc4c(c3)OCCO4)o2)cc1,0.006% (inactive)
8,O=C(Nc1nnc(-c2ccc3c(c2)OCCO3)o1)C(F)(F)c1ccccc1,-0.027% (inactive)
9,COc1ccc(S(=O)(=O)Nc2nnc(-c3ccc4c(c3)OCCO4)o2)cc1,-0.015% (inactive)
10,CN1CCC(C(=O)Nc2nnc(-c3ccc4c(c3)OCCO4)o2)CC1,0.046% (inactive)
11,O=C(Nc1nnc(-c2ccccc2Cl)o1)C1CCCCC1,0.001% (inactive)
12,O=S(=O)(Nc1nnc(-c2ccc3c(c2)OCCO3)o1)c1ccc(Cl)cc1,-0.019% (inactive)
13,CCn1nnnc1N,0.029% (inactive)
14,Cc1ccc2cc3c(NC(=O)c4ccc(C)o4)nn(C)c3nc2c1,8.61% (inactive)
15,O=C(Nc1nnc(-c2ccncc2)o1)C1CCC1,0.061% (inactive)
16,O=C(Nc1nnc(-c2ccc3c(c2)OCCO3)o1)C1CC1,0.003% (inactive)
17,CC(C)c1ccc2cc3c(NC(=O)c4ccco4)nn(C)c3nc2c1,0.362% (inactive)
18,COc1cccc(-c2nnc(NC(=O)C3CCCCC3)o2)c1,0.041% (inactive)
19,O=C(Nc1nnc(-c2cccnc2)o1)C1CCCCC1,7.84% (inactive)
20,O=C(Cc1ccc(-c2ccccc2)cc1)NC1COC1,32.6% (inactive)
21,COc1ccc(-c2nnc(NC(C)=O)o2)cc1,0.052% (inactive)
22,O=C(Nc1nnc(-c2ccc3c(c2)OCCO3)o1)C1CCC1,0.014% (inactive)
23,Cc1ccc2cc3c(NC(=O)c4ccccn4)nn(C)c3nc2c1,-0.007% (inactive)
24,Cn1nc(NC(=O)c2ccco2)c2ccccc21,3.2% (inactive)
25,C(=N\c1nnc(-c2ccc3c(c2)OCCO3)o1)/c1ccccc1,0.005% (inactive)
26,Cn1nc(NC(=O)c2ccco2)c2cc3ccc(C(C)(C)C)cc3nc21,-0.007% (inactive)
27,Cc1ccc2cc3c(NC(=O)c4cc5ccccc5o4)nn(C)c3nc2c1,-0.001% (inactive)
28,Cn1ccc(NC(=O)c2ccco2)n1,0.057% (inactive)
29,CN(C)/C=N/c1nnc(-c2ccc3c(c2)OCCO3)o1,0.028% (inactive)

# System: V. cholerae WN1103 ΔluxQ, lux luminescence, 6 h
# Assay: as above
# Conditions: not given
row,SMILES,AC40
1,COc1ccccc1-c1nnc(NC(=O)C2CCCCC2)o1,> 100 µM (inactive)
2,Cc1cccc(-n2cnc(=O)c3ccccc32)c1,0.199 µM
3,O=c1ncn(-c2ccc(F)c(Cl)c2)c2ccccc12,5.38 µM
4,COc1ccc(-c2nnc(NC(=O)C3CCCCC3)o2)cc1,> 100 µM (inactive)
5,CC(C)(C)COC(=O)CSc1n[nH]c(=O)[nH]c1=O,18.9 µM
6,O=c1ncn(-c2ccccc2)c2ccccc12,0.361 µM
7,Cc1nc(=O)c2ccccc2n1-c1cccc(Cl)c1,18.1 µM
8,Cn1nc(NC(=O)c2ccco2)c2cc3ccccc3nc21,4.12 µM
9,O=c1ncn(-c2cccc(F)c2)c2ccccc12,0.302 µM
10,Cc1cc(F)cc2nc3c(cc12)c(NC(=O)c1ccco1)nn3C,27.1 µM
11,Cc1cc2nc3c(cc2cc1F)c(NC(=O)c1ccco1)nn3C,57.3 µM
12,O=C(Cc1ccc(-c2ccccc2)cc1)NC1CCC1,5.06 µM
13,Cn1nc(NC(=O)c2ccco2)c2cccnc21,44.1 µM
14,O=c1ncn(-c2cccc(Cl)c2)c2ccccc12,0.0667 µM and 0.362 µM
15,O=c1ncn(-c2cc(Cl)cc(Cl)c2)c2ccccc12,1.09 µM
16,CCn1nnnc1NCc1ccc(C(C)C)cc1,0.255 µM
17,CCCCCCCCCC(=O)C(O)CC (configuration not stated),0.848 µM
18,O=C(Cc1ccc(-c2ccccc2)cc1)N[C@@H]1CCOC1 (racemic),31.2 µM
19,Cc1ccc2cc3c(NC(=O)c4cccs4)nn(C)c3nc2c1,> 80 µM (inactive)
20,Cc1cc(F)c2cc3c(NC(=O)c4ccco4)nn(C)c3nc2c1,47 µM
21,O=C(Nc1nnc(-c2ccc3c(c2)OCCO3)o1)C1CCCCC1,5.8 µM and 1.96 µM
22,COc1ccc2cc3c(NC(=O)c4ccco4)nn(C)c3nc2c1,0.901 µM
23,O=c1ncn(-c2cccc(Cl)c2)c2ccc(Cl)cc12,1.33 µM
24,Cc1cc2cc3c(NC(=O)c4ccco4)nn(C)c3nc2cc1C,71.7 µM
25,Cc1ccc2cc3c(NC(=O)C4CCCC4)nn(C)c3nc2c1,59.3 µM
26,Cc1ccc2c(c1)c(=O)ncn2-c1cccc(Cl)c1,1.45 µM
27,CCc1ccc2cc3c(NC(=O)c4ccco4)nn(C)c3nc2c1,42.1 µM
28,O=C(Nc1nnc(-c2ccc3c(c2)OCCO3)o1)C1CCCCCC1,9.05 µM
29,CCn1nnnc1NC(C)c1ccc(N2CCCC2)cc1 (configuration not stated),34.7 µM
30,CCCCCCCCCC(=O)[C@H](O)CC (racemic),1.92 µM
